pEC50: −log10 of the molar value.
Legend:
[1] = target: T1, mouse M1 (Mus musculus, UniProt P12657); assay: Calcium mobilization assay, mouse M1 PAM; format: cell-based; conditions: PAM mode
T1 construct: expressed in transfected cells; host or cells: CHO (stated in general for all functional cell-based assays)

[2] = system: rCYP2J2; assay: Substrate depletion with recombinant human CYPs, rCYP2J2; format: in vitro ADME
Description: (§1) To advance 11 as a candidate and into IND-enabling studies, we next needed to better understand its CYP profile to minimize drug–drug interactions in the clinic. […] We were pleased to see the contribution of another CYP beyond 3A4 for the metabolism of 11.[21] In parallel, we investigated the ability of PAM 11 to induce the expression of CYP450s (measuring mRNA) in cryopreserved human hepatocytes from three separate donors.

[3] = system: CYP3A4; assay: CYP induction (mRNA) in cryopreserved human hepatocytes, CYP3A4; format: in vitro ADME; conditions: three donors
Description: as §1

[4] = MET ID in rat liver S9; format: in vitro ADME; conditions: based on MS peak areas
Description: Eight oxidative metabolites were identified, with the major metabolite in both rat and human being Metabolite A (VU6036463, 24), the result of oxidative N-demethylation of the southern pyrazole (Scheme 4). The majority of other oxidative metabolism occurred on the tetrahydropyran moiety and included ring opening, but there was no amide hydrolysis observed.[21]

[5] = Hepatocyte MET ID, mouse; format: in vitro ADME
Description: We typically would not examine mouse hepatocyte MET ID, as mouse was not a safety species for the IND-enabling toxicology package, but with the unusual metabolism profile for human, and the lack of predictive cholinergic tox in the mouse phenotypic assay, we felt this was worthy of exploration. […] Clearly, based on the hepatocyte data, there is a tremendous difference in the concentration of parent 11 and metabolite composition, which sheds light on the mouse-rat disconnect for observed cholinergic toxicity in rat versus the more cholinergic sensitive mouse.

[6] = system: Adrenergic α2A; assay: Eurofins radioligand binding; parameters: species or system Human; conditions: specific binding
[7] = system: Androgen (Testosterone); assay: Eurofins radioligand binding; parameters: species or system Human; conditions: specific binding
[8] = system: Bradykinin B1; assay: Eurofins radioligand binding; parameters: species or system Human; conditions: specific binding
[9] = system: Bradykinin B2; assay: Eurofins radioligand binding; parameters: species or system Human; conditions: specific binding
[10] = system: Calcium Channel L-Type, Dihydropyridine; assay: Eurofins radioligand binding; parameters: species or system Rat; conditions: specific binding
[11] = system: Dopamine D3; assay: Eurofins radioligand binding; parameters: species or system Human; conditions: specific binding
[12] = system: Endothelin ETA; assay: Eurofins radioligand binding; parameters: species or system Human; conditions: specific binding
[13] = system: Epidermal Growth Factor (EGF); assay: Eurofins radioligand binding; parameters: species or system Human; conditions: specific binding
[14] = system: GABAA, Muscimol, Central; assay: Eurofins radioligand binding; parameters: species or system Rat; conditions: specific binding
[15] = system: Glucocorticoid; assay: Eurofins radioligand binding; parameters: species or system Human; conditions: specific binding
[16] = system: Glutamate, NMDA, Agonism; assay: Eurofins radioligand binding; parameters: species or system Rat; conditions: specific binding
[17] = system: Histamine H3; assay: Eurofins radioligand binding; parameters: species or system Human; conditions: specific binding
[18] = system: Interleukin IL-1 R1; assay: Eurofins radioligand binding; parameters: species or system Human; conditions: specific binding
[19] = system: Opiate κ (OP2, KOP); assay: Eurofins radioligand binding; parameters: species or system Human; conditions: specific binding
[20] = system: Opiate μ (OP3, MOP); assay: Eurofins radioligand binding; parameters: species or system Human; conditions: specific binding
[21] = system: Phorbol Ester; assay: Eurofins radioligand binding; parameters: species or system Mouse; conditions: specific binding
[22] = system: Platelet Activating Factor (PAF); assay: Eurofins radioligand binding; parameters: species or system Human; conditions: specific binding
[23] = system: Prostanoid EP4; assay: Eurofins radioligand binding; parameters: species or system Human; conditions: specific binding
[24] = system: Purinergic P2Y, Non-Selective; assay: Eurofins radioligand binding; parameters: species or system Rat; conditions: specific binding
[25] = system: Rolipram; assay: Eurofins radioligand binding; parameters: species or system Rat; conditions: specific binding
[26] = system: Serotonin (5-HT3); assay: Eurofins radioligand binding; parameters: species or system Human; conditions: specific binding
[27] = system: Sodium Channel, Site 2; assay: Eurofins radioligand binding; parameters: species or system Rat; conditions: specific binding
[28] = system: Thyroid Hormone; assay: Eurofins radioligand binding; parameters: species or system Rat; conditions: specific binding
[29] = system: Transporter, Dopamine (DAT); assay: Eurofins radioligand binding; parameters: species or system Human; conditions: specific binding
[30] = system: Transporter, Norepinephrine (NET); assay: Eurofins radioligand binding; parameters: species or system Human; conditions: specific binding

T1 sequence (P12657 whole entry): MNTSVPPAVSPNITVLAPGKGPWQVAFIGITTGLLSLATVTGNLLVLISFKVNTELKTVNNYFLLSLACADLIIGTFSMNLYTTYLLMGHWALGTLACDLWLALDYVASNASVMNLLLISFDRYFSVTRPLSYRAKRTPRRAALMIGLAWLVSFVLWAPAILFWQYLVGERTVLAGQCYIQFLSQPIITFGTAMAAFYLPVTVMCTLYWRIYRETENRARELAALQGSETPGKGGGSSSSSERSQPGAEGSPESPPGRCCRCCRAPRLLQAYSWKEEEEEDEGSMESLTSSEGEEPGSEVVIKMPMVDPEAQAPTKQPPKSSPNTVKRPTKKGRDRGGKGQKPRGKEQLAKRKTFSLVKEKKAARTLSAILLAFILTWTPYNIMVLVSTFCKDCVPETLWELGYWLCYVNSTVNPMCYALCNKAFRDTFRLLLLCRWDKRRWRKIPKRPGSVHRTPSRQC

Cn1ccc(-c2ccc(Cc3cc(C(=O)NC4CCOCC4)nc4ccn(C)c34)cc2)n1 [compound 11]
pEC50 [1]: 7.04 | mouse M1 PAM ACh max [1]: 66% | share of hepatic CYP-mediated clearance, rCYP2J2 [2]: 2.4% | CYP3A4 induction (mRNA) [3]: ~21 fold | extent of metabolism, rat liver S9 [4]: 36.8% | extent of metabolism, mouse hepatocytes [5]: 95.4% | % Inhibition at 10 µM [6]: -7% | % Inhibition at 10 µM [7]: -24% | % Inhibition at 10 µM [8]: 21% | % Inhibition at 10 µM [9]: -3% | % Inhibition at 10 µM [10]: -8% | % Inhibition at 10 µM [11]: 8% | % Inhibition at 10 µM [12]: 3% | % Inhibition at 10 µM [13]: 5% | % Inhibition at 10 µM [14]: -1% | % Inhibition at 10 µM [15]: 5% | % Inhibition at 10 µM [16]: 0% | % Inhibition at 10 µM [17]: -12% | % Inhibition at 10 µM [18]: 10% | % Inhibition at 10 µM [19]: 32% | % Inhibition at 10 µM [20]: -4% | % Inhibition at 10 µM [21]: -1% | % Inhibition at 10 µM [22]: -13% | % Inhibition at 10 µM [23]: 16% | % Inhibition at 10 µM [24]: -9% | % Inhibition at 10 µM [25]: 10% | % Inhibition at 10 µM [26]: -3% | % Inhibition at 10 µM [27]: 19% | % Inhibition at 10 µM [28]: 2% | % Inhibition at 10 µM [29]: 13% | % Inhibition at 10 µM [30]: 12%

— publication PMC11413853, “Discovery of VU6007496: Challenges in the Development of an M1 Positive Allosteric Modulator Backup Candidate” (ACS Chemical Neuroscience, 2024)
